Test system: test persons
Experiment: Measuring the cooling effect: antiperspirant aerosols evaluated by test persons
Assay type: in vivo
Source text: Measuring the Cooling Effect
Inventive antiperspirant aerosols were produced with various cooling agents and evaluated by test persons. It was shown that the cooling agent L-menthol is employable only in very small quantities, namely in quantities below 0.1 wt %, relative to the weight of the gasified aerosol formulation, corresponding to a weight fraction of 0.66 wt %, relative to the weight of the formulation, without taking into account the propellant. […] The skin compatibility in the armpit area was also worsened by menthol above 0.1 wt %, relative to the weight of the gasified aerosol formulation, corresponding to a weight fraction of 0.66 wt %, relative to the weight of the formulation, without taking into account the propellant. […] The proportion of nonresponders, 47%, was too high, however, and could not be reduced by increasing the concentration of L-menthol without the appearance of the cited inacceptable side effects.
The formulation B including 1.0 wt % of an extract of Rumex acetosa leaf in solution/suspension in isopropyl myristate with a dry substance weight of 0.5 wt %, relative to the weight of the raw material itself, was also found to be cooling by 57% of the test persons. […] The amount of dry substance of the oily Rumex acetosa leaf extract here amounted to 0.033 wt %, relative to the weight of the inventive composition without propellant. […]

employable quantity of the cooling agent (relative to the weight of the formulation, without taking into account the propellant): < 0.66 wt %
employable quantity of the cooling agent (relative to the weight of the gasified aerosol formulation): below 0.1 wt %
SMILES: CC(C)[C@@H]1CC[C@@H](C)C[C@H]1O [L-menthol]
